# According to PMC2785468, “Androgen Receptor Mutations Associated with Androgen Insensitivity Syndrome: A High Content Analysis Approach Leading to Personalized Medicine” (PLoS ONE, 2009):
# Molecular target: T1, wild type AR (Homo sapiens, UniProt P10275)
# T1 construct: expressed in transfected cells
# T1 sequence (P10275 1-920): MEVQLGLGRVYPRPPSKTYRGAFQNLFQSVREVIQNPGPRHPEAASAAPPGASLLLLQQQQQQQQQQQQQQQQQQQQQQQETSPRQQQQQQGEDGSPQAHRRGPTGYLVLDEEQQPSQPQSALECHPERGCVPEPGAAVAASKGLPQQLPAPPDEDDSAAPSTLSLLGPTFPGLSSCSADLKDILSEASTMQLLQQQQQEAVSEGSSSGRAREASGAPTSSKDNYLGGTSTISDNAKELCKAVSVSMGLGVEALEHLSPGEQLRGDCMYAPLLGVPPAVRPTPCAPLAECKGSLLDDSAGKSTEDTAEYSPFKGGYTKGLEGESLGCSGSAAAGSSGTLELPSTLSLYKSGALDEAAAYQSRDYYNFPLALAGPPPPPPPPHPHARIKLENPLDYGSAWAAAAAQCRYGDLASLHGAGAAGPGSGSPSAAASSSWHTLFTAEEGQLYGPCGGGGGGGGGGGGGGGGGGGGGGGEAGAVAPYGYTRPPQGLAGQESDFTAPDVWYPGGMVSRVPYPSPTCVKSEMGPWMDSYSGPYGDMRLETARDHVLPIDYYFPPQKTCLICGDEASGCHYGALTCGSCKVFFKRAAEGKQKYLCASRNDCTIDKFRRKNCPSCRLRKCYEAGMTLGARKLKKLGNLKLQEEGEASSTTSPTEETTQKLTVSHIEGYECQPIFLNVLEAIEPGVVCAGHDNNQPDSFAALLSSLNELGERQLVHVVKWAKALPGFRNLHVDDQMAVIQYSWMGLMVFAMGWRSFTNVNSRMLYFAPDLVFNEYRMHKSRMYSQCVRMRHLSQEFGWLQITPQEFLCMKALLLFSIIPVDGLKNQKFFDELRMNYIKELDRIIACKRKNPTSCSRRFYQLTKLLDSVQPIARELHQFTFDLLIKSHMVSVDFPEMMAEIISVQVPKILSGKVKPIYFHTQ
# Format: cell-based
# Method: To determine the global effect of the various AIS mutations on AR signaling, each was analyzed using HCA. This technology allows simultaneous quantification of AR protein expression, nuclear translocation, subnuclear patterning, and transcriptional activity. The analysis was done in HeLa cell lines stably transfected with wild type or mutant ARs fused with green fluorescent protein, or using AR immunofluorescence in primary cultures of genital skin fibroblasts generated from foreskin biopsies of historical AIS patients, or of normal neonates undergoing circumcision at birth. To prevent the effects of receptor over-expression, stable HeLa cells were carefully selected to express AR levels similar to LNCaP as previously described. Prior to ligand treatment, HeLa cells were transfected with the pARR2PB-dsRED2skl reporter plasmid, consisting of the AR responsive promoter ARR2PB [31] driving expression of the red fluorescent protein reporter dsRED2skl engineered to target peroxisomes.
# For studies utilizing HeLa GFP-AR cell lines, twenty-four hours before transfection with pARR2PB-dsRED2skl, cells were plated onto 100 mm plastic dishes in medium supplemented with 5% charcoal-stripped and dialyzed-FBS. Transient introduction of the pARR-2PB-dsRED2skl reporter construct was performed using 6.0 µg reporter plasmid and 6.0 µg carrier DNA (BlueScript, Stratagene, San Diego, CA) using Transfectin (Biorad) following standard protocols. After 8-hour incubation, DNA/lipid complexes were removed. Cells were then trypsinized and replated at 10,000 cells per well in Nunc poly-D-lysine treated 96-well optical glass bottom plates and incubated an additional 12 hours to allow for cell adhesion. […] Compound dilutions and final addition to multi-well plates were performed using a Beckman Biomek NX robotic platform to ensure repeatability from experiment to experiment. After incubation was complete, using the Biomek NX robot, plates were washed with PBS and fixed for 20 min at RT in 4% formaldehyde prepared in CSK buffer (80 mM potassium PIPES, pH 6.8, 5 mM EGTA, 2 mM MgCl2). After fixation, cells were briefly permeabilized (5 min) with 0.5% Triton-X and prepared for imaging by washing in PBS, aspirating the washed solution, and adding a 1 ng/ml DAPI solution to stain DNA and a generic protein stain (CellMask, Invitrogen) to facilitate cell and nuclear image segmentation. Cells were imaged in PBS.
# Cells were imaged using the Cell Lab IC-100 Image Cytometer (IC-100; Beckman Coulter) platform that consists of 1) Nikon Eclipse TE2000-U Inverted Microscope (Nikon; Melville, NY); 2) Chroma 82000 triple band filter set (Chroma; Brattleboro, VT); 3) an imaging camera: Hamamatsu ORCA-ER Digital CCD camera (Hamamatsu; Bridgewater, NJ); and 4) a focusing camera: Photonics COHU Progressive scan camera (Photonics; Oxford, MA). […] In general, 49 to 64 images were captured per well for image analysis.
# Initially, the background signal was removed from all images using plate- and channel-specific correction images, generated by the sum projection of >600 randomly selected images for each channel from the image set. This allows for a pixel-by-pixel background subtraction that compensates any consistent uneven background artifacts in the image set. Furthermore, users are able to customize the degree of background subtraction by applying a multiplier to each correction image, useful for identification of objects such as nuclei or cell borders. […]
structure (smiles),measurement,setting,value
"C[C@@H]1CC2=CC(=O)CC[C@@H]2[C@H]2CC[C@@]3(C)[C@@H](CC[C@]3(C)O)[C@@H]21 [Mb, Mibolerone]","Percent Signal in Nucleus, Max","HeLa Wild Type, % signal present in the nucleus, Mean±S.E.M.",80.5±1.9%
same,"Hyperspeckling, Max","HeLa Wild Type, absolute numerical measurement",1101±61
same,"Transcriptional Activity, Max","HeLa Wild Type, pARR2PB-dsRED2skl reporter, absolute numerical measurement",113±1.4
same,increase in the percent of the GFP signal in the nucleus,"HeLa wild type GFP-AR, vs untreated",approximately 30%
same,factor between EC50 for nuclear translocation and EC50 for hyperspeckling and transcriptional activity,"HeLa-AR cells, 1440 min",approximately 30 fold
